Numbers after ± are expanded uncertainties.
Test: xn = mol fraction of the nth substance listed
Settings: 101 kPa, Liquid; for speed of sound: Frequency=2 MHz; for mass density: Pycnometric method

OCCOCCO [diethylene glycol] + CCC(C)O
speed of sound [m/s], Linear variable-path acoustic interferometer
Settings | x1 = 0.1097 | x1 = 0.2096 | x1 = 0.2951 | x1 = 0.3876 | x1 = 0.512 | x1 = 0.592 | x1 = 0.6771 | x1 = 0.7984 | x1 = 0.8962 | x1 = 1
298.15 K | 1243.1 ± 6.4 | 1273.6 ± 6.5 | 1300.5 ± 6.7 | 1330.6 ± 6.8 | 1372 ± 7 | 1400 ± 7.2 | 1431.4 ± 7.3 | 1480.5 ± 7.6 | 1525.1 ± 7.8 | 1579.3 ± 8.1
303.15 K | 1225.2 ± 6.3 | 1256.7 ± 6.4 | 1283.5 ± 6.6 | 1313.5 ± 6.7 | 1356.2 ± 6.9 | 1386.1 ± 7.1 | 1418.2 ± 7.2 | 1468.2 ± 7.5 | 1513.4 ± 7.7 | 1568 ± 8
308.15 K | 1207.6 ± 6.2 | 1239.8 ± 6.3 | 1266 ± 6.5 | 1296 ± 6.6 | 1339.4 ± 6.8 | 1370.1 ± 7 | 1403 ± 7.2 | 1454.1 ± 7.4 | 1501.7 ± 7.7 | 1557.3 ± 8
313.15 K | 1190.1 ± 6.1 | 1222.7 ± 6.3 | 1249.1 ± 6.4 | 1279.3 ± 6.5 | 1323.4 ± 6.8 | 1354.9 ± 6.9 | 1389.2 ± 7.1 | 1441.2 ± 7.4 | 1490 ± 7.6 | 1546.1 ± 7.9

mass density [kg/m3]
Settings | x1 = 0.1097 | x1 = 0.2096 | x1 = 0.2951 | x1 = 0.3876 | x1 = 0.512 | x1 = 0.592 | x1 = 0.6771 | x1 = 0.7984 | x1 = 0.8962 | x1 = 1
298.15 K | 838.7 ± 0.6 | 871.6 ± 0.6 | 899.5 ± 0.6 | 929.3 ± 0.6 | 968.6 ± 0.6 | 993.4 ± 0.6 | 1019.2 ± 0.6 | 1055.1 ± 0.6 | 1083.2 ± 0.7 | 1112.7 ± 0.7
303.15 K | 834.7 ± 0.7 | 867.7 ± 0.6 | 895.7 ± 0.6 | 925.5 ± 0.7 | 964.9 ± 0.7 | 989.8 ± 0.7 | 1015.8 ± 0.7 | 1051.8 ± 0.7 | 1079.9 ± 0.7 | 1109.3 ± 0.7
308.15 K | 830.7 ± 0.7 | 863.9 ± 0.6 | 891.9 ± 0.7 | 921.8 ± 0.7 | 961.2 ± 0.7 | 986.2 ± 0.7 | 1012.3 ± 0.7 | 1048.4 ± 0.7 | 1076.6 ± 0.7 | 1105.9 ± 0.7
313.15 K | 826.8 ± 0.7 | 860.1 ± 0.7 | 888.1 ± 0.7 | 918 ± 0.7 | 957.6 ± 0.7 | 982.6 ± 0.7 | 1008.9 ± 0.7 | 1045.1 ± 0.7 | 1073.3 ± 0.7 | 1102.5 ± 0.7

OCCOCCO [diethylene glycol] + CCCCO
Settings | mass density, 298.15 K [kg/m3] | mass density, 303.15 K [kg/m3] | mass density, 308.15 K [kg/m3] | mass density, 313.15 K [kg/m3] | speed of sound, 298.15 K [m/s] | speed of sound, 303.15 K [m/s] | speed of sound, 308.15 K [m/s] | speed of sound, 313.15 K [m/s]
x1 = 0.1095 | 840.7 ± 0.6 | 837 ± 0.6 | 833.4 ± 0.6 | 829.7 ± 0.6 | 1265.9 ± 6.8 | 1249.5 ± 6.7 | 1232.3 ± 6.6 | 1215.9 ± 6.6
x1 = 0.2096 | 872.6 ± 0.6 | 868.9 ± 0.6 | 865.3 ± 0.6 | 861.6 ± 0.6 | 1294 ± 7 | 1277.8 ± 6.9 | 1261.3 ± 6.8 | 1245.8 ± 6.7
x1 = 0.2955 | 899.7 ± 0.6 | 896.1 ± 0.6 | 892.4 ± 0.6 | 888.8 ± 0.6 | 1320.9 ± 7.1 | 1305.3 ± 7 | 1289 ± 6.9 | 1273.5 ± 6.9
x1 = 0.3874 | 928.5 ± 0.6 | 924.9 ± 0.6 | 921.2 ± 0.6 | 917.6 ± 0.7 | 1350.8 ± 7.3 | 1335.3 ± 7.2 | 1318.7 ± 7.1 | 1303.2 ± 7
x1 = 0.5122 | 967.1 ± 0.6 | 963.5 ± 0.6 | 959.9 ± 0.7 | 956.3 ± 0.7 | 1392.3 ± 7.5 | 1377.7 ± 7.4 | 1361.9 ± 7.3 | 1347.4 ± 7.2
x1 = 0.592 | 991.5 ± 0.6 | 988 ± 0.7 | 984.4 ± 0.7 | 980.9 ± 0.7 | 1419.3 ± 7.6 | 1406 ± 7.6 | 1391.6 ± 7.5 | 1378 ± 7.4
x1 = 0.677 | 1017.3 ± 0.6 | 1013.7 ± 0.7 | 1010.2 ± 0.7 | 1006.7 ± 0.7 | 1448.9 ± 7.8 | 1436.8 ± 7.7 | 1424.2 ± 7.6 | 1411.6 ± 7.6
x1 = 0.7986 | 1053.5 ± 0.7 | 1050.1 ± 0.7 | 1046.6 ± 0.7 | 1043.1 ± 0.7 | 1492.7 ± 8 | 1481.1 ± 7.9 | 1470.1 ± 7.9 | 1459.2 ± 7.8
x1 = 0.896 | 1082.3 ± 0.7 | 1078.8 ± 0.7 | 1075.4 ± 0.7 | 1072 ± 0.7 | 1531.3 ± 8.2 | 1520.6 ± 8.2 | 1510 ± 8.1 | 1500 ± 8
x1 = 1 | 1112.7 ± 0.7 | 1109.3 ± 0.7 | 1105.9 ± 0.7 | 1102.5 ± 0.7 | 1579.3 ± 8.5 | 1568 ± 8.4 | 1557.3 ± 8.3 | 1546.1 ± 8.3

OCCCCO [1,4-butanediol] + OCCOCCO
speed of sound [m/s], Linear variable-path acoustic interferometer
Settings | x2 = 0 | x2 = 0.108 | x2 = 0.1977 | x2 = 0.2897 | x2 = 0.4096 | x2 = 0.509 | x2 = 0.6116 | x2 = 0.6912 | x2 = 0.7992 | x2 = 0.8838
298.15 K | 1601.6 ± 8.2 | 1568.1 ± 8 | 1549.9 ± 7.9 | 1543.5 ± 7.9 | 1546.2 ± 7.9 | 1552.2 ± 7.9 | 1558.9 ± 8 | 1564.5 ± 8 | 1571.3 ± 8 | 1575.3 ± 8
303.15 K | 1589.3 ± 8.1 | 1558.9 ± 7.9 | 1542 ± 7.9 | 1535.7 ± 7.8 | 1538.6 ± 7.8 | 1544 ± 7.9 | 1550.2 ± 7.9 | 1555.3 ± 7.9 | 1561.2 ± 8 | 1564.6 ± 8
308.15 K | 1577.7 ± 8 | 1549.8 ± 7.9 | 1534.4 ± 7.8 | 1528.2 ± 7.8 | 1531.1 ± 7.8 | 1536.3 ± 7.8 | 1541.8 ± 7.9 | 1546.4 ± 7.9 | 1551.7 ± 7.9 | 1554.7 ± 7.9
313.15 K | 1565.6 ± 8 | 1540.6 ± 7.9 | 1526.6 ± 7.8 | 1520.3 ± 7.8 | 1523.2 ± 7.8 | 1528.1 ± 7.8 | 1533.1 ± 7.8 | 1537.2 ± 7.8 | 1541.7 ± 7.9 | 1544.4 ± 7.9

mass density [kg/m3]
Settings | x2 = 0 | x2 = 0.108 | x2 = 0.1977 | x2 = 0.2897 | x2 = 0.4096 | x2 = 0.509 | x2 = 0.6116 | x2 = 0.6912 | x2 = 0.7992 | x2 = 0.8838
298.15 K | 1012.6 ± 0.6 | 1019.9 ± 0.6 | 1026.6 ± 0.6 | 1035 ± 0.6 | 1047 ± 0.6 | 1057.6 ± 0.6 | 1069.4 ± 0.6 | 1078.5 ± 0.6 | 1090.6 ± 0.6 | 1100 ± 0.7
303.15 K | 1009.6 ± 0.6 | 1017.1 ± 0.6 | 1024 ± 0.6 | 1032.3 ± 0.6 | 1044.3 ± 0.6 | 1054.9 ± 0.6 | 1066.5 ± 0.6 | 1075.6 ± 0.6 | 1087.6 ± 0.7 | 1096.8 ± 0.7
308.15 K | 1006.7 ± 0.6 | 1014.4 ± 0.6 | 1021.4 ± 0.6 | 1029.6 ± 0.6 | 1041.6 ± 0.6 | 1052.1 ± 0.6 | 1063.7 ± 0.6 | 1072.6 ± 0.7 | 1084.5 ± 0.7 | 1093.6 ± 0.7
313.15 K | 1003.7 ± 0.6 | 1011.7 ± 0.6 | 1018.7 ± 0.6 | 1027 ± 0.6 | 1038.9 ± 0.6 | 1049.4 ± 0.6 | 1060.8 ± 0.6 | 1069.6 ± 0.7 | 1081.3 ± 0.7 | 1090.3 ± 0.7
